Converted amounts (≈) assume the structure as drawn.
Columns and labels:
[1] = Hemin binding activity assay by 1H NMR (pseudocontact shifts); conditions: for Maximum induced Δδ: hemin induced pseudocontact chemical shift; for Maximum induced Δδ / Concentration dependence Δδ: DMSO-d6; for Concentration dependence Δδ: slope of Δδ v. hemin concentration
Experimental: (§1) As provided in Example 5, the hemin binding affinity for a series of tryptanthrin compounds with functional groups at the 8-position with different electron donating/withdrawing characteristics corresponding with the pharmacophore model of the present invention was determined by ^1H NMR. The binding interaction was measured as a function of the induced up-field shift in the chemical shift as a function of increasing hemin concentration. ^1H spectra of selected compounds each analog with an increasing concentration of hemin were collected and analyzed for the effect of the pseudocontact shifts.
It is well known that bio-molecules containing the paramagnetic species Fe^+3 induce via pseudocontact effect (a thru-space paramagnetic interaction, similar to the thru-space diopolar interaction or NOE) up-field chemical shifts of the ^1H, ^13C, ^15N atoms of bound ligands. See Serge Moreau et al. (1985) Biochemica et. Biophysica Acta 107-116; Alam, S. L., et al. (1998) J. Biomol. NMR 11:119-133; and Kalodimos, C. G., et al. (2000) J. Inorg. Biochem. 79:371-380, which are herein incorporated by reference. […] See Crowley, P. B., et al. (2001) J. Am. Chem. Soc. 123:10444-10453, which is herein incorporated by reference. Consequently, the closer a particular proton on the ligand is to the Fe^+3 atom, the greater the induced Δδ.
as §1, with “The” for “As provided in Example 5, the”, “using” for “by”, “of” for “of selected compounds”
To each sample, a 100 or 200 μl aliquot of a known concentration of hemin dissolved in 1.0 ml of DMSO-d6 was added. The concentrations of the tryptanthrin compounds compounds ranged from 3.0 to 8.0 mg per 500 μl of DMSO. A corresponding solution of hemin in DMSO was prepared to maintain a molar ratio of tryptanthrin compounds to hemin in the range of 1:1.0 to 1:1.5.
All ^1H NMR data was collected using a Bruker Avance-600 spectrometer using methods known in the art. See e.g. Wang, J., et al. (2001) J. Am. Chem. Soc. 123:8080-8088, which is herein incorporated by reference. The proton spectra were collected at 300 K, using a spectral width of 9090.9 Hz. All spectra were acquired with 64k data points in F2. All chemical shifts were referenced internally to TMS (0.00 ppm). The spectra were processed using XWINNMR (Bruker BioSpin Corporation, Billerica, Mass.) on a Silicon Graphics O2 workstation (Silicon Graphics, Mountain View, Calif.). Each data set was multiplied by a Gaussain window function with 0.3 Hz line broadening in each dimension before transformation.

[2] = tested on: P. falciparum W2 (Indochina) clone; test: Antimalarial activity assay in vitro ([3H]hypoxanthine incorporation), W2 clone; type: cell-based; conditions: Plasmodium falciparum, Table 7, read-out: W-2
From the text: Although two P. falciparum malaria parasite clones, designated as Sierra Leone (D6) and Indochina (W2) were used in the susceptibility testing as disclosed in Example 1, the IC50 values obtained from the W2 clones were used as the activity parameter to develop the pharmacophore model as the D6 clone results closely paralleled the W2 clones. See U.S. Pat. No. 6,284,772, which is herein incorporated by reference.
(§2) The tryptanthrin compounds were examined for IC50 values against either the P. falciparum W2 (Indochina) or D6 (Sierra Leone) clones in vitro. See U.S. Pat. No. 6,284,772, which is herein incorporated by reference. The in vitro assays were conducted by using the semiautomated microdilution technique of Desjardins, et al. (1979) Antimicrob. Agents Chemther. 16:710-718 and the [^3H]hypoxanthine incorporation techniques of Chulay et al. (1983) Exp. Parasitol. 55:138-146, both of which are herein incorporated by reference. […] The clones were derived by direct visualization and micromanipulation from the patient isolates.
(§3) Test tryptanthrin compounds were initially dissolved in DMSO and diluted 400-fold in RPMI 1640 culture medium supplemented with 25 mM Hepes, 32 mM NaHCO3 and 10% Albumax I (GIBCO BRL, Grand Island, N.Y.). These solutions were subsequently serially diluted 2-fold with a Biomek 1000 (Beckman, Fullerton, Calif.) over 11 different concentrations. The parasites were exposed to serial dilutions of each compound for 48 hours and incubated at 37° C. with 5% O2, 5% CO2, and 90% N2 prior to the addition of [^3H]hypoxanthine. After a further incubation of 18 hours, parasite DNA was harvested from each microtiter well using a Packard Filtermate 196 Harvester (Meriden, Conn.) onto glass filters. Uptake of [^3H]hypoxanthine was measured with a Packard topcount scintillation counter.

[3] = Cyclic voltammetry, redox potentials; type: physicochemical; design: unit not given here; conditions: 1 mM in acetonitrile, 0.1 M tetrabutylammonium hexafluorophosphate, Ag-AgCl reference
Experimental: The redox potentials associated with electron transfer to the oxygen atoms in compounds was measured. Experiments were performed on a CV-50W Voltammetric analyzer with a C2 cell stand (Bioanalytical systems, West Lafayette Ind.).
Cyclic voltammetry experiments were performed on a CV-50W Voltammetric analyzer with a C2 cell stand (Bioanalytical systems, West Lafayette Ind.). A glassy carbon working, an Ag—AgCl reference electrode and a Pt auxiliary electrode were used in a 5 ml glass cell. All samples were dissolved in dry acetonitrile (Aldrich, St. Louis, Mo.) with 0.1 M tetrabutylammonium hexafluorophosphate (Aldrich, St. Louis, Mo.) as the supporting electrolyte. Each analog was prepared at a concentration of 1 mM and was degassed with nitrogen for 5 minutes prior to analysis. Samples were run at several scan rates ranging from 20 to 1000 mV/s. See Smyth, M. R., and Vos, J. G. Analytical Voltammetry; Elsevier: New York, 1992; Chapter 1, which is herein incorporated by reference.

[4] = tested on: P. falciparum D6 (Sierra Leone) clone; test: Antimalarial activity assay in vitro ([3H]hypoxanthine incorporation), D6 clone; type: cell-based; conditions: Plasmodium falciparum, Table 7, read-out: D-6
Experimental: as §2, §3

malaria parasites = test: In vivo testing (modified Thompson test), mouse malaria; design: species or system mice
From the text: The in vivo efficacy of the compounds of the present invention alone or in combination with an adjuvant can be determined in a modified Thompson test. This test measures the survivability of mice and parasitemia clearance following administration of the compound or composition of the invention on days 3-5 post infection. In brief, 5×10^5 malaria parasites of one or more of the four described strains are inoculated intraperitoneally to female mice that weight approximately 24-30 g. Each compound was dissolved in 5% sodium bicarbonate, and was administered p.o. twice daily from day 3 to day 5 postinfection. Total dosage of the compounds of the invention is 0.001 to 1000 mg/kg. The percent suppression of parasitemia in the treated mice compared to untreated controls is determined for each test compound. Survival of mice to day 60 post infection is considered a cure. Compounds are considered active when the survival time of the treated mice is greater than twice the control mice.
The test of the six compounds identified above were conducted by subcutaneous dosing in peanut oil. Formulated in peanut oil and injected s.c. (N=8) at various doses up to 190 mg/kg. […] Although parasites were not cleared, the survival of infected mice doubled that of the control. Life expectancy was 12-14 days compared to 6-7 days in the control (parasitized, untreated).

Maximum induced Δδ [1] [ppm]	Concentration dependence Δδ [1] [ppm/mole %]	IC50 [2] [ng/mL]	Redox1 [3]	Redox 2 [3]	IC50 [4] [ng/mL]	SMILES	further results
0.462	0.08951	–	–	–	–	O=C1c2cc(OC(F)(F)F)ccc2-n2c1nc1ncccc1c2=O [DN9]	–
0.208	0.119	–	–	–	–	COc1ccc2c(c1)C(=O)c1nc3ncccc3c(=O)n1-2 [DN23]	–
1.538	0.4159	–	–	–	–	O=C1c2cc([N+](=O)[O-])ccc2-n2c1nc1ncccc1c2=O [DN40]	maximum pseudocontact shift relative to DN48 ([1]; compared with DN48): approximately 3 times
0.389	0.119	–	–	–	–	O=C1c2ccc(Cl)cc2-n2c1nc1ncccc1c2=O [DN48]	–
0.360	0.1366	–	–	–	–	O=C1c2cc(F)ccc2-n2c1nc1ncccc1c2=O [DN63]	–
–	–	2.46 (≈ 0.00723 µM)	−630	−1281	4.12 (≈ 0.0121 µM)	CN(CCO)c1ccc2c(=O)n3c(nc2c1)C(=O)c1cc(F)ccc1-3 [WR281523]	–
–	–	1.25 (≈ 0.00307 µM)	−600	−1252	2.31 (≈ 0.00566 µM)	O=C1c2cc(OC(F)(F)F)ccc2-n2c1nc1cc(SCCO)ccc1c2=O [WR281525]	–
–	–	4.74 (≈ 0.0158 µM)	−586	−1242	6.77 (≈ 0.0225 µM)	O=C1c2cc(Cl)ccc2-n2c1nc1cc(F)ccc1c2=O [WR281583]	–
–	–	4.27 (≈ 0.0112 µM)	−692	−1324	10.5 (≈ 0.0275 µM)	CN1CCN(c2ccc3c(=O)n4c(nc3c2)C(=O)c2cc(Cl)ccc2-4)CC1 [WR281588]	–
–	–	36.8 (≈ 0.0764 µM)	−709	−1375	70.1 (≈ 0.146 µM)	CCCCCCCC(=O)OCCN(C)c1ccc2c(=O)n3c(nc2c1)C(=O)c1cc(Cl)ccc1-3 [WR281591]	–
–	–	1.58 (≈ 0.00557 µM)	−593	−1219	2.57 (≈ 0.00904 µM)	O=C1c2cc(F)ccc2-n2c1nc1c(F)cccc1c2=O [WR281631]	–
–	–	35.6 (≈ 0.0882 µM)	−640	−1230	95.3 (≈ 0.236 µM)	COc1cccc2c(=O)n3c(nc12)C(=O)c1cc(I)ccc1-3 [WR281635]	–
–	–	58.1 (≈ 0.159 µM)	−696	−1348	97.1 (≈ 0.265 µM)	O=C1c2cc(Cl)ccc2-n2c1nc1cc(N3CCCCC3)ccc1c2=O [WR281647]	–
–	–	–	–	–	–	O=C1c2cc(F)ccc2-n2c1nc1ccccc1c2=O [WR^282611]	survival of infected mice relative to control (malaria parasites; 190 mg/kg s.c. in peanut oil): doubled; Life expectancy (malaria parasites; 190 mg/kg s.c. in peanut oil, control 6-7 days): 12 to 14 days; activity (malaria parasites; max. dosage 190 mg/kg s.c. in peanut oil): exhibited activity

— patent US7259167B2, “Antimalarial and antiproliferative pharmacophore models, novel tryptanthrin compounds having increased solubility, and methods of making and using thereof” (United States of America as Represented by the Secretary of …, priority 2002, dated 2007)
